Calls of active or inactive are those of the source. No rule for the calls is given here.
Experiments:
Candida albicans [1] = experiment: Binding affinity to Candida albicans CaMdr1p expressed in yeast AD1-8u
Saccharomyces cerevisiae [2] = experiment: Antifungal activity against yeast AD1-8u expressing Candida albicans CaCdr1p by agar disk diffusion assay; assay type: functional
Saccharomyces cerevisiae [3] = experiment: Antifungal activity against yeast AD1-8u expressing Candida albicans CaMdr1p by agar disk diffusion assay; assay type: functional; also: test concentration or dose not given here
Candida albicans [4] = experiment: Binding affinity to Candida albicans CaCdr1p expressed in yeast AD1-8u
For IZ in this document: test concentration or dose not given here.

CCCCCCCCCCCC(=O)OCCN(CC)CC
Activity (Candida albicans [1]): Active
inhibition zone (IZ) (Saccharomyces cerevisiae [2]): 0.2 cm
inhibition zone (IZ) (Saccharomyces cerevisiae [3]): 0.7 cm
Activity (Candida albicans [4]): inactive

CCCCCCCCCCCCn1cncn1
Activity (Candida albicans [1]): inactive
inhibition zone (IZ) (Saccharomyces cerevisiae [2]): 0.7 cm
inhibition zone (IZ) (Saccharomyces cerevisiae [3]): 0.1 cm
Activity (Candida albicans [4]): Active

COC(=O)C1=C(C)NC(C)=C(C(=O)OCCCN2CCC(c3ccccc3)(c3ccccc3)CC2)[C@H]1c1cccc([N+](=O)[O-])c1 [NIGULDIPINE]
Activity (Candida albicans [1]): inactive
inhibition zone (IZ) (Saccharomyces cerevisiae [2]): 0.5 cm
inhibition zone (IZ) (Saccharomyces cerevisiae [3]): 0.2 cm
Activity (Candida albicans [4]): Active

COC(=O)C1=C(C)NC(C)=C(C(=O)OC)C1c1ccccc1[N+](=O)[O-] [NIFEDIPINE]
Activity (Candida albicans [1]): inactive
inhibition zone (IZ) (Saccharomyces cerevisiae [2]): 0 cm
inhibition zone (IZ) (Saccharomyces cerevisiae [3]): 0 cm
Activity (Candida albicans [4]): inactive

COc1cccc2c1C(=O)c1c(O)c3c(c(O)c1C2=O)C[C@@](O)(C(C)=O)C[C@@H]3O[C@H]1C[C@H](N)[C@H](O)[C@H](C)O1 [DAUNORUBICIN]
Activity (Candida albicans [1]): inactive
inhibition zone (IZ) (Saccharomyces cerevisiae [2]): 0.5 cm
inhibition zone (IZ) (Saccharomyces cerevisiae [3]): 0 cm
Activity (Candida albicans [4]): Active

COc1ccc2c3c([nH]c2c1)[C@H](C=C(C)C)N1C(=O)[C@@H]2CCCN2C(=O)[C@@H]1C3 [FUMITREMORGIN]
Activity (Candida albicans [1]): inactive
inhibition zone (IZ) (Saccharomyces cerevisiae [2]): 0 cm
inhibition zone (IZ) (Saccharomyces cerevisiae [3]): 0 cm
Activity (Candida albicans [4]): inactive

COc1ccc2cc3[n+](cc2c1OC)CCc1cc2c(cc1-3)OCO2.[Cl-] [BERBERINE CHLORIDE]
Activity (Candida albicans [1]): inactive
inhibition zone (IZ) (Saccharomyces cerevisiae [2]): 0.5 cm
inhibition zone (IZ) (Saccharomyces cerevisiae [3]): 0 cm
Activity (Candida albicans [4]): Active

COc1cc2ncnc(Nc3ccc(F)c(Cl)c3)c2cc1OCCCN1CCOCC1 [GEFITINIB]
Activity (Candida albicans [1]): inactive
inhibition zone (IZ) (Saccharomyces cerevisiae [3]): 0.2 cm
Activity (Candida albicans [4]): Active

COCCOC(=O)C1=C(C)NC(C)=C(C(=O)OC(C)C)C1c1cccc([N+](=O)[O-])c1 (stereo not given) [NIMODIPINE]
Activity (Candida albicans [1]): inactive
inhibition zone (IZ) (Saccharomyces cerevisiae [2]): 0 cm
inhibition zone (IZ) (Saccharomyces cerevisiae [3]): 0 cm
Activity (Candida albicans [4]): inactive

NC[C@H]1O[C@H](O[C@H]2[C@H](O)[C@@H](O[C@H]3O[C@H](CO)[C@@H](O)[C@H](N)[C@H]3O)[C@H](N)C[C@@H]2N)[C@H](O)[C@@H](O)[C@@H]1O [KANAMYCIN]
Activity (Candida albicans [1]): Active
inhibition zone (IZ) (Saccharomyces cerevisiae [2]): 0.1 cm
inhibition zone (IZ) (Saccharomyces cerevisiae [3]): 0.3 cm
Activity (Candida albicans [4]): inactive

C[C@@H](c1ncncc1F)[C@](O)(Cn1cncn1)c1ccc(F)cc1F [VORICONAZOLE]
Activity (Candida albicans [1]): Active
inhibition zone (IZ) (Saccharomyces cerevisiae [2]): 1.9 cm
inhibition zone (IZ) (Saccharomyces cerevisiae [3]): 0.8 cm
Activity (Candida albicans [4]): Active

c1ccc(C(c2ccccc2)(c2ccccc2)c2ncc[nH]2)cc1 [TRITYL IMIDAZOLE]
Activity (Candida albicans [1]): inactive
inhibition zone (IZ) (Saccharomyces cerevisiae [2]): 1.3 cm
inhibition zone (IZ) (Saccharomyces cerevisiae [3]): 0 cm
Activity (Candida albicans [4]): Active

CCCCCCCCCCCC(=O)OCCN(C)C
Activity (Candida albicans [1]): inactive
inhibition zone (IZ) (Saccharomyces cerevisiae [2]): 0.4 cm
inhibition zone (IZ) (Saccharomyces cerevisiae [3]): 0.2 cm
Activity (Candida albicans [4]): Active

CN(C)C(=O)Nc1ccc(Cl)c(Cl)c1 [DCMU]
Activity (Candida albicans [1]): Active
inhibition zone (IZ) (Saccharomyces cerevisiae [2]): 0.8 cm
inhibition zone (IZ) (Saccharomyces cerevisiae [3]): 0.8 cm
Activity (Candida albicans [4]): Active

COC(=O)[C@@H]1[C@H]2C[C@H]3c4[nH]c5ccccc5c4CCN3C[C@@H]2CC[C@@H]1O.Cl [YOHIMBINE HYDROCHLORIDE]
Activity (Candida albicans [1]): Active
inhibition zone (IZ) (Saccharomyces cerevisiae [2]): 1.3 cm
inhibition zone (IZ) (Saccharomyces cerevisiae [3]): 1.3 cm
Activity (Candida albicans [4]): Active

CON(C)C(=O)Nc1ccc(Cl)c(Cl)c1 [LINURON]
Activity (Candida albicans [1]): Active
inhibition zone (IZ) (Saccharomyces cerevisiae [2]): 0.8 cm
inhibition zone (IZ) (Saccharomyces cerevisiae [3]): 0.6 cm
Activity (Candida albicans [4]): Active

CC(=O)N1CCN(c2ccc(OCC3COC(Cn4ccnc4)(c4ccc(Cl)cc4Cl)O3)cc2)CC1 (stereo not given) [KETOCONAZOLE]
inhibition zone (IZ) (Saccharomyces cerevisiae [2]): 1.4 cm
Activity (Candida albicans [4]): Active

Source: ChEMBL document CHEMBL1275276, “Analysis of physico-chemical properties of substrates of ABC and MFS multidrug transporters of pathogenic Candida albicans” (2010)
